# Data as given in patent publication US20110034507A1, “FARNESOID X RECEPTOR AGONISTS” (SMITHKLINE BEECHAM CORPORATION, priority 2007, published 2011).
# Entries after “also recorded” stand apart in the source; their conditions may differ.
# Tests used:
# [1] = target: T1, Human FXRα Ligand Binding Domain (Homo sapiens, UniProt Q96RI1); assay: FXR Cofactor Binding Assay (ligand mediated SRC-1 cofactor peptide interaction, time resolved fluorescence); type: biochemical; details: FXRα LBD / SRC-1 (LCD2, 676-700) peptide, TRF; read-out: Activity (pEC50) (converted)
# T1 construct: polyhistidine (pRSET-A vector leader) (N); made in house; host or cells: E. coli BL21 (DE3), pRSET-A vector
# T1 sequence (Q96RI1 237-472 isoform Q96RI1-2): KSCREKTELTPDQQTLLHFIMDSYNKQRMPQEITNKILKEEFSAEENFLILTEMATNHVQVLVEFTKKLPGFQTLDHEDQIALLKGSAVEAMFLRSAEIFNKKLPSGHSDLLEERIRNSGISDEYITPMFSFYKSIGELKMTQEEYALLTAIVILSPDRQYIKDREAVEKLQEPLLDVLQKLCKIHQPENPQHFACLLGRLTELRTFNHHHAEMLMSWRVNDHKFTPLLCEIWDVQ
# Description: Determination of a ligand mediated cofactor peptide interaction to quantify ligand binding to the nuclear receptor Farnesoid X Receptor (FXR). The method measures the ability of putative ligands to modulate the interaction between the purified bacterial expressed FXRα ligand binding domain (LBD) and a synthetic biotinylated peptide based on residues 676-700 of steroid receptor coactivator-1 (SRC-1) (LXXLL-containing domain-2 where L is the amino acid leucine and X indicates any other amino acid (LCD2), 676-700). The sequence of the SRC-1 peptide used is as published in Iannone, M. A., et al., 2001 Cytometry 44:326-337 where the N-terminus was biotinylated (B) and the C-terminus was amidated. Detection of the associated complex was measured by time resolved fluorescence (TRF). The purified LBD of FXR was labeled with biotin, then mixed with stoichiometric amounts of allophycocyanin (APC) labeled streptavidin (Molecular Probes). The biotinylated peptide was then mixed with a ½ stoichiometric amount of europium labeled streptavidin (Wallac Inc). Each was then blocked with a 5 fold excess of biotin and allowed to equilibrate for 15 min. Equimolar amounts of receptor and peptide were mixed together and were allowed to equilibrate for at least 30 min prior to the addition to either a variable or constant concentrations of the sample for which the affinity is to be determined. After equilibration, the time-resolved fluorescent signal was quantitated using a fluorescent plate reader. The affinity of the test compound was estimated from a plot of fluorescence versus concentration of test compound added.
# Ligands that promote the complex formation induce a concentration-dependent increase in time-resolved fluorescent signal.
# Human FXRα Ligand Binding Domain (FXRα LBD) was expressed in E. coli strain BL21 (DE3) as an amino-terminal polyhistidine tagged fusion protein. Expression was under the control of an isopropyl-β-D-thiogalactopyranoside (IPTG) inducible T7 promoter. DNA encoding this recombinant protein is subcloned into the pRSET-A expression vector (Invitrogen). The coding sequence of Human FXRα LBD was derived from Genbank accession number U 68233 (amino acids 237 to 472).
# Ten-liter fermentation batches were grown in Rich PO4 media with 0.1 mg/mL Ampicillin at 25° C. for 12 hours, cooled to 9° C. and held at that temperature for 36 hours to a density of OD600=14. At this cell density, 0.25 mM IPTG is added and induction proceeded for 24 hours at 9° C., to a final OD600=16. Cells are harvested by centrifugation (20 minutes, 3500×gravity, 4° C.), and concentrated cell slurries were stored in phosphate buffered saline (PBS) at […].
# Routinely, 30-40 g cell paste (equivalent to 2-3 liters of the fermentation batch) was resuspended in 200-250 mL Tris buffered saline (TBS), pH 7.2 (25 mM Tris-hydroxymethylamino methane (Tris), 150 mM sodium chloride). Cells were lysed by passing 3 times through a French Press and cell debris was removed by centrifugation (30 minutes, 20,000×gravity, 4° C.). The cleared supernatant was filtered through course pre-filters, and TBS, pH 7.2, 500 mM imidazole was added to obtain a final imidazole concentration of 50 mM. This lysate was loaded onto a column (6×8 cm) packed with Sepharose [Ni^++ charged] Chelation resin (Pharmacia) and pre-equilibrated with TBS pH 7.2/50 mM imidazole. After washing to baseline absorbance with equilibration buffer, the column was washed with one column volume of TBS pH 7.2 containing 90 mM imidazole. FXRα LBD was eluted directly with 365 mM imidazole. Column fractions were pooled and dialyzed against TBS, pH 7.2, containing 0.5 mM EDTA and 5 mM DTT. The dialyzed protein sample was concentrated using Centri-prep 10 K (Amicon) and subjected to size exclusion, using a column (3×90 cm) packed with Sepharose S-75 resin (Pharmacia) pre-equilibrated with TBS, pH 7.2, containing 0.5 mM ethylene diamine tetraacetic acid (EDTA) and 5 mM dithiothreitol (DTT).
# [2] = test system: mice on a lithogenic diet; details: cited from earlier work
# bile duct-ligated mouse = details: cited from earlier work
# db/db mice = details: cited from earlier work
# ob/ob mice = details: 30 mg/kg intraperitoneally, male ob/ob mice; cited from earlier work
# [3] = test system: C57BL mice on high-fat diet; details: cited from earlier work
# [4] = GW4064 100 mg/kg twice a day orally
smiles,measurement,setting,value
"CC(C)c1onc(-c2c(Cl)cccc2Cl)c1COc1ccc2c(c1)CC(=O)N(c1cccc(C(=O)O)c1)C2 [Example 45, 3-[6-({[3-(2,6-Dichlorophenyl)-5-(1-methylethyl)-4-isoxazolyl]methyl}oxy)-3-oxo-3,4-dihydro-2(1H)-isoquinolinyl]benzoic acid]",EC50,[1],1020 to 10000 nM
"CC(C)c1onc(-c2c(Cl)cccc2Cl)c1COc1ccc2c(ccn2Cc2ccc(-c3nnn[nH]3)cc2)c1 [Example 46, 5-({[3-(2,6-Dichlorophenyl)-5-(1-methylethyl)-4-isoxazolyl]methyl}oxy)-1-{[4-(1H-tetrazol-5-yl)phenyl]methyl}-1H-indole]",EC50,[1],< 100 nM
"CC(C)c1onc(-c2c(Cl)cccc2Cl)c1COc1ccc2c(ccn2Cc2nc(C(=O)O)co2)c1 [Example 47, 2-{[5-({[3-(2,6-Dichlorophenyl)-5-(1-methylethyl)-4-isoxazolyl]methyl}oxy)-1H-indol-1-yl]methyl}-1,3-oxazole-4-carboxylic acid]",EC50,[1],102 to 1000 nM
"Cc1ccc(Cn2ccc3cc(OCc4c(-c5c(Cl)cccc5Cl)noc4C(C)C)ccc32)cc1C(=O)O [Example 48, 5-{[5-({[3-(2,6-Dichlorophenyl)-5-(1-methylethyl)-4-isoxazolyl]methyl}oxy)-1H-indol-1-yl]methyl}-2-methylbenzoic acid]",EC50,[1],102 to 1000 nM
"CC(C)c1onc(-c2c(Cl)cccc2Cl)c1COc1ccc2c(ccn2Cc2cccc(C(=O)O)n2)c1 [Example 49, 6-{[5-({[3-(2,6-Dichlorophenyl)-5-(1-methylethyl)-4-isoxazolyl]methyl}oxy)-1H-indol-1-yl]methyl}-2-pyridinecarboxylic acid]",EC50,[1],102 to 1000 nM
"CC(C)c1onc(-c2c(Cl)cccc2Cl)c1COc1ccc2[nH]cc(Cc3cccc(C(=O)O)c3)c2c1 [Example 50, 3-{[5-({[3-(2,6-Dichlorophenyl)-5-(1-methylethyl)-4-isoxazolyl]methyl}oxy)-1H-indol-3-yl]methyl}benzoic acid]",EC50,[1],1020 to 10000 nM
"CC(C)c1onc(-c2c(Cl)cccc2Cl)c1COc1ccc2c(ccn2Cc2nc(C(=O)O)cs2)c1 [Example 51, 2-{[5-({[3-(2,6-Dichlorophenyl)-5-(1-methylethyl)-4-isoxazolyl]methyl}oxy)-1H-indol-1-yl]methyl}-1,3-thiazole-4-carboxylic acid]",EC50,[1],102 to 1000 nM
"CC(C)c1onc(-c2c(Cl)cccc2Cl)c1COc1ccc2c(Cc3cccc(C(=O)O)c3)c[nH]c2c1 [Example 52, 3-{[6-({[3-(2,6-Dichlorophenyl)-5-(1-methylethyl)-4-isoxazolyl]methyl}oxy)-1H-indol-3-yl]methyl}benzoic acid]",EC50,[1],102 to 1000 nM
"CC(C)c1onc(-c2c(Cl)cccc2Cl)c1COc1ccc2c(ccn2C(=O)N2CC[C@@H](C(=O)O)C2)c1 [Example 53, (3R)-1-{[5-({[3-(2,6-Dichlorophenyl)-5-(1-methylethyl)-4-isoxazolyl]methyl}oxy)-1H-indol-1-yl]carbonyl}-3-pyrrolidinecarboxylic acid]",EC50,[1],102 to 1000 nM
"CC(C)c1onc(-c2c(Cl)cccc2Cl)c1COc1ccc2sc(-c3cccc(C(=O)O)c3)cc2c1 [Example 54, 3-[5-({[3-(2,6-Dichlorophenyl)-5-(1-methylethyl)-4-isoxazolyl]methyl}oxy)-1-benzothien-2-yl]benzoic acid]",EC50,[1],< 100 nM
"CC(C)c1onc(-c2c(Cl)cccc2Cl)c1COc1ccc2c(ccn2C(=O)N2CC[C@H](C(=O)O)C2)c1 [Example 55, (3S)-1-{[5-({[3-(2,6-Dichlorophenyl)-5-(1-methylethyl)-4-isoxazolyl]methyl}oxy)-1H-indol-1-yl]carbonyl}-3-pyrrolidinecarboxylic acid]",EC50,[1],102 to 1000 nM
"CC(C)c1onc(-c2c(Cl)cccc2Cl)c1COc1ccc2[nH]c(-c3cccc(C(=O)O)c3)cc2c1 [Example 56, 3-[5-({[3-(2,6-Dichlorophenyl)-5-(1-methylethyl)-4-isoxazolyl]methyl}oxy)-1H-indol-2-yl]benzoic acid]",EC50,[1],102 to 1000 nM
"CC(C)c1onc(-c2c(Cl)cccc2Cl)c1COc1ccc2c(c1)CC(c1cccc(C(=O)O)c1)C2 (centres unmarked) [Example 57, 3-[5-({[3-(2,6-Dichlorophenyl)-5-(1-methylethyl)-4-isoxazolyl]methyl}oxy)-2,3-dihydro-1H-inden-2-yl]benzoic acid]",EC50,[1],102 to 1000 nM
"CC(C)c1onc(-c2c(Cl)cccc2Cl)c1COc1ccc2c(ccn2Cc2cccc(C(=O)O)c2)c1 [Example 59, 3-{[5-({[3-(2,6-Dichlorophenyl)-5-(1-methylethyl)-4-isoxazolyl]methyl}oxy)-1H-indol-1-yl]methyl}benzoic acid]",EC50,[1],102 to 1000 nM
"CC(C)c1onc(-c2c(Cl)cccc2Cl)c1COc1ccc2c(c1)CCN(c1cccc(C(=O)O)c1)C2=O [Example 60, 3-[6-({[3-(2,6-Dichlorophenyl)-5-(1-methylethyl)-4-isoxazolyl]methyl}oxy)-1-oxo-3,4-dihydro-2(1H)-isoquinolinyl]benzoic acid]",EC50,[1],102 to 1000 nM
CC(C)c1onc(-c2c(Cl)cccc2Cl)c1COc1ccc(/C=C/c2cccc(C(=O)O)c2)c(Cl)c1 [GW4064],effect on cholesterol crystal formation in FXR null mice,[2]; FXR null mice,lost
same,formation of cholesterol crystals in the bile,[2]; mice on a lithogenic diet,prevented
same,effect on translocation of bacteria in FXR null mice,bile duct-ligated mouse; FXR null mice,lost
same,bacterial overgrowth,bile duct-ligated mouse; bile duct-ligated mouse,decreased
same,mucosal barrier,bile duct-ligated mouse; bile duct-ligated mouse,improved
same,translocation of bacteria to mesenteric lymph nodes,bile duct-ligated mouse; bile duct-ligated mouse,decreased
same,glycogen storage in the liver,db/db mice; db/db mice,enhanced
same,insulin signalling in the liver,db/db mice; db/db mice,enhanced
same,hyperglycemia,db/db mice; diabetic db/db mice,significantly improved
same,hyperlipidemia,db/db mice; diabetic db/db mice,significantly improved
same,NEFA,"db/db mice; oral 30 mg/kg, bid, db/db mice",decreased
same,blood glucose,"db/db mice; oral 30 mg/kg, bid, db/db mice",decreased
same,serum hydroxybutyrate,"db/db mice; oral 30 mg/kg, bid, db/db mice",decreased
same,total cholesterol,"db/db mice; oral 30 mg/kg, bid, db/db mice",decreased
same,triglyceride,"db/db mice; oral 30 mg/kg, bid, db/db mice",decreased
same,body weight,ob/ob mice,did not alter
same,fasting blood glucose,ob/ob mice,no effect
same,food intake,ob/ob mice,did not alter
same,glucose tolerance,ob/ob mice,improved
same,insulin concentration,ob/ob mice,decreased
same,insulin sensitivity,ob/ob mice,enhanced
same,body weight (high-fat diet induced body weight gain),"[3]; GW4064 100 mg/kg twice a day orally, 100 mg/kg",decreased; also recorded: reduced
same,glucose tolerance,"[3]; GW4064 100 mg/kg twice a day orally, GTT, 100 mg/kg",corrected glucose intolerance; also recorded: appeared to improve
same,liver triglyceride content,[3]; [4],reduced
same,serum glucose,[3]; [4],decreased
same,serum insulin,[3]; [4],decreased
same,serum triglyceride,[3]; [4],decreased
same,body fat mass,[3],decreased
same,total cholesterol,[3],decreased
